Results on five compounds are retold here after patent publication US12122816B2, “Long acting peptide tyrosine tyrosine (PYY) analogs and methods of use” (Intarcia Therapeutics, Inc., priority 2020, dated 2024).

By solubility is commonly meant the concentration that dissolves in the medium under given conditions. One may read the EC50 as the concentration needed to bring the measured effect to its halfway point.

A short description of data set [1]: Solubility in DI water at room temperature (visual inspection). The data set is classed as physicochemical. The settings on record: TFA salt form. How it is done:
The analog polypeptides described herein were tested for solubility in saline or in aqueous (DI water) at room temperature. Samples were visually inspected for clarity of the sample, any appearance of turbidity or haziness.

A short description of data set [2]: Stability in water or saline (1 mg/ml) at 37° C., purity by LC/MS and HPLC. The note with it: TFA salt form. The data set is classed as physicochemical.
For data set [3], the target named is T1, human Y2 receptor (Homo sapiens, UniProt P49146).
T1 sequence (P49146 1-381): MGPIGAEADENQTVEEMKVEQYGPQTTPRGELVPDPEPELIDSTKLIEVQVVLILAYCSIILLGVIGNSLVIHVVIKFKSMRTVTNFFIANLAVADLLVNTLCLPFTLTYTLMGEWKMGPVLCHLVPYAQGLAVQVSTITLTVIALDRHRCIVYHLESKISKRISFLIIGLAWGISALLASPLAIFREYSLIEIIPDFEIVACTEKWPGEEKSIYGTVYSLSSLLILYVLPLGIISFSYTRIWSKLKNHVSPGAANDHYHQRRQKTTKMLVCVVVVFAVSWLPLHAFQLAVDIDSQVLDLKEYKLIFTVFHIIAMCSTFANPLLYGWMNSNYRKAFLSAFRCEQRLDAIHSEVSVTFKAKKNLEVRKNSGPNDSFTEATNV
The data set is described as follows: NPY receptor functional assay (cAMP, HEK-CNG cells, ACTOne membrane potential dye). It is filed as cell-based. The settings on record: NPY2R pEC50, HEK-CNG cells; standard PYY(3-36); species (human or rat) not given. Put shortly: (§1)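 HEK-CNG cells stably expressing each human receptor; peptides added in triplicate for 50 minutes at room temperature, with agonism read as decreased isoproterenol-induced membrane potential dye signal (final/initial read).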

Data set [4] concerns the target T2, human Y5 receptor (Homo sapiens, UniProt Q15761).
T2 sequence (Q15761 1-445): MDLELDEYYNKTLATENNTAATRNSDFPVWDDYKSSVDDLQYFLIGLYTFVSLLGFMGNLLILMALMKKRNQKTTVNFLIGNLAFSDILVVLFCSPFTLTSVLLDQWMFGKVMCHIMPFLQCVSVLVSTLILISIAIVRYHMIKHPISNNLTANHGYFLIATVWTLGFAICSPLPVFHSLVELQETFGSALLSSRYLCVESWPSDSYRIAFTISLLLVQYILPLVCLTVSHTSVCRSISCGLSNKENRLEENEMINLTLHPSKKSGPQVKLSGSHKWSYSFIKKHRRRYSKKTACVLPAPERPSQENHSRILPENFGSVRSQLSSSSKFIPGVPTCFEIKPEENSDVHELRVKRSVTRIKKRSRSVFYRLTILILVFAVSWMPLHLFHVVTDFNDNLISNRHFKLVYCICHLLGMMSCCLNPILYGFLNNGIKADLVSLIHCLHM
The data set is described as above. The data set is classed as cell-based. The settings on record: NPY5R pEC50, HEK-CNG cells; standard NPY; species (human or rat) not given. Put shortly: as §1

The target of data set [5] is T3, human Y1 receptor (Homo sapiens, UniProt P25929).
T3 sequence (P25929 1-384): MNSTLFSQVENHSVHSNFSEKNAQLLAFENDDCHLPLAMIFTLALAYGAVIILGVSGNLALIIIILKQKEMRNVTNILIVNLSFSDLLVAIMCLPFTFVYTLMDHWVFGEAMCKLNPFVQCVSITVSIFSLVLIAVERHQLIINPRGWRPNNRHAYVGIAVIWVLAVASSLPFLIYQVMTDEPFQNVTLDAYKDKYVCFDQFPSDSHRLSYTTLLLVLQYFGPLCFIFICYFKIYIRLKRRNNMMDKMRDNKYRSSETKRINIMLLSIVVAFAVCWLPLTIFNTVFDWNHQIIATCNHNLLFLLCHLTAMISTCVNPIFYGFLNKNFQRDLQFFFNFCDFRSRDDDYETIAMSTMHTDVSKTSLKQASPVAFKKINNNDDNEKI
Described as above. It is filed as cell-based. The text has this:
The NPY family of G-protein coupled receptors include Y1, Y2, Y4, and Y5 in humans and rats. […] Following agonist binding, the receptor-G protein complex activates a downstream intracellular signaling cascade which leads to inhibition of adenylate cyclase and a reduction in intracellular cAMP levels.
HEK-CNG cells stably expressing the human or rat Y1, Y2, Y4 or Y5 receptors (Codex Biosolutions) were used to characterize the functional potency of peptide agonists using the ActOne™ membrane potential dye kit (Codex Biosolutions). In addition to each NPY receptor, each cell line encodes a proprietary exogenous Cyclic Nucleotide-Gated (CNG) channel (Codex Biosolutions). The channel is activated by elevated intracellular levels of cAMP, resulting in ion flux and cell membrane depolarization which can be detected with a calcium sensitive dye or fluorescent membrane potential (MP) dye. Cells were carried in growth media containing 90% DMEM, 10% FBS, 250 mcg/mL G418 and 1 mcg/mL puromycin for no more than 15 passages.
Prior to testing, cells were counted and dispensed at 14,000 cells per well (Y1, Y4 and Y5) or 28,000 cells per well (Y2) into black 384 well Poly-D-Lysine plates at 20 mcL per well. Covered plates were then incubated at room temperature for 30 minutes followed by an overnight incubation at 37° C. in 5% C02. The following day, media was removed and wells were washed once with 40 mcL Dulbecco's phosphate buffered saline. […] Ten microliters of experimental peptide or peptide standard was added in triplicate to wells and incubated for 50 minutes at room temperature in the dark. Following this incubation step, plates were read again as before (final read).
NPY receptor activation, leading to a reduction in intracellular cAMP levels, is detected as a decrease in isoproteranol induced fluorescent signal. Peptide standard and experimental values were initially transformed in excel using the formula: final read/initial read. […] Normalized data was analyzed from triplicate tests and used to estimate the EC50 for each test peptide on each receptor. Data was fit in GraphPad Prism software (v8.2.1) using a 3-parameter logistic curve model: Y=Bottom+(Top−Bottom)/(1+10^((LogEC50−X))). EC50 values were converted to pEC50 values using the formula: pEC50=−Log(EC50).

For data set [6] the following is noted: cited from earlier work.

Starred links: 1 amine or outer side, 2 acyl side, 3 side chain; linkers in the order of their positions; H or OH if unused. Positions of bridges follow the written chain, without caps; N, C: chain ends. Residues, ends and D or L forms follow the SMILES beside them. Groups on a side chain read outwards from the residue. No end group written: not given here. *: point of attachment. C19 diacid = O=C(O)CCCCCCCCCCCCCCCCCC(=O)*; γGlu = O=C(O)[C@H](CCC(=O)[*:2])N[*:1]

Turning to `CC(C)C[C@H](NC(=O)[C@H](CC(=O)O)NC(=O)[C@H](CCCCN)NC(=O)[C@H](Cc1ccc(O)cc1)NC(=O)[C@H](Cc1ccc(O)cc1)NC(=O)[C@H](CCCNC(=N)N)NC(=O)[C@H](CC(N)=O)NC(=O)[C@H](Cc1c[nH]c2ccccc12)NC(=O)[C@H](CCC(=O)O)NC(=O)[C@H](CCC(=O)O)NC(=O)[C@@H]1CCCN1C(=O)[C@H](CO)NC(=O)[C@H](C)NC(=O)[C@H](CC(=O)O)NC(=O)[C@H](CCCCNC(=O)CC[C@H](NC(=O)CC[C@H](NC(=O)CCCCCCCCCCCCCCCCCCC(=O)O)C(=O)O)C(=O)O)NC(=O)CNC(=O)[C@@H]1CCCN1C(=O)[C@H](CCCCN)NC(=O)[C@H](CCC(=O)O)NC(=O)[C@@H]1CCCN1C(=O)[C@H](CCCCN)NC(=O)[C@@H]1CCCN1)C(=O)N[C@@H](CCCNC(=N)N)C(=O)N[C@@H](Cc1c[nH]cn1)C(=O)N[C@@H](Cc1ccc(O)cc1)C(=O)N[C@@H](CC(C)C)C(=O)N[C@@H](CC(N)=O)C(=O)N[C@@H](Cc1c[nH]c2ccccc12)C(=O)N[C@@H](CC(C)C)C(=O)N[C@H](C(=O)N[C@@H](CCCNC(=N)N)C(=O)N[C@@H](CCC(N)=O)C(=O)N[C@@H](CCCNC(=N)N)C(=O)N[C@@H](Cc1ccccc1)C(N)=O)[C@@H](C)O` [Compound A19], the solubility in data set [1] (DI water, read-out: Solubility (in Water, RT)) worked out at 59 mg/mL. Moreover, the “Stability (37° C./RT, T0: Mar. 25, 2020)” value in data set [2] worked out at 88.8. Further, the EC50 is 0.0316 nM in data set [3] and 2 nM in data set [4].

As to `CC(C)C[C@H](NC(=O)[C@H](CC(=O)O)NC(=O)[C@@H]1CCCCNC(=O)C[C@H](NC(=O)[C@H](Cc2c[nH]c3ccccc23)NC(=O)[C@H](CCC(=O)O)NC(=O)[C@H](CCCCN)NC(=O)[C@@H]2CCCN2C(=O)[C@H](CO)NC(=O)[C@H](C)NC(=O)[C@H](CC(=O)O)NC(=O)[C@H](CCCCNC(=O)CC[C@H](NC(=O)CC[C@H](NC(=O)CCCCCCCCCCCCCCCCCC(=O)O)C(=O)O)C(=O)O)NC(=O)CNC(=O)[C@@H]2CCCN2C(=O)[C@H](CCCCN)NC(=O)[C@H](CCC(=O)O)NC(=O)[C@@H]2CCCN2C(=O)[C@H](CCCCN)NC(=O)[C@@H]2CCCN2)C(=O)N[C@@H](CCCNC(=N)N)C(=O)N[C@@H](Cc2ccc(O)cc2)C(=O)N[C@@H](Cc2ccc(O)cc2)C(=O)N1)C(=O)N[C@@H](CCCNC(=N)N)C(=O)N[C@@H](Cc1c[nH]cn1)C(=O)N[C@@H](Cc1ccc(O)cc1)C(=O)N[C@@H](CC(C)C)C(=O)N[C@@H](CC(N)=O)C(=O)N[C@@H](Cc1c[nH]c2ccccc12)C(=O)N[C@@H](CC(C)C)C(=O)N[C@H](C(=O)N[C@@H](CCCNC(=N)N)C(=O)N[C@@H](CCC(N)=O)C(=O)N[C@@H](CCCNC(=N)N)C(=O)N[C@@H](Cc1ccccc1)C(N)=O)[C@@H](C)O` [Compound A40], in data set [1], the “Solubility (in Water, RT)” value is recorded as 27 mg/mL. Further, the “Stability (37° C./RT, T0: Mar. 25, 2020)” value in data set [2] came out at 98.1.

`CC(C)C[C@H](NC(=O)[C@H](CC(=O)O)NC(=O)[C@@H]1CCCCNC(=O)CC[C@H](NC(=O)[C@H](Cc2c[nH]c3ccccc23)NC(=O)[C@H](CCC(=O)O)NC(=O)[C@H](CCCCN)NC(=O)[C@@H]2CCCN2C(=O)[C@H](CO)NC(=O)[C@H](C)NC(=O)[C@H](CC(=O)O)NC(=O)[C@H](CCCCNC(=O)CC[C@H](NC(=O)CC[C@H](NC(=O)CCCCCCCCCCCCCCCCCC(=O)O)C(=O)O)C(=O)O)NC(=O)CNC(=O)[C@@H]2CCCN2C(=O)[C@H](CCCCN)NC(=O)[C@H](CCC(=O)O)NC(=O)[C@@H]2CCCN2C(=O)[C@H](CCCCN)NC(=O)[C@@H]2CCCN2)C(=O)N[C@@H](CCCNC(=N)N)C(=O)N[C@@H](Cc2ccc(O)cc2)C(=O)N[C@@H](Cc2ccc(O)cc2)C(=O)N1)C(=O)N[C@@H](CCCNC(=N)N)C(=O)N[C@@H](Cc1c[nH]cn1)C(=O)N[C@@H](Cc1ccc(O)cc1)C(=O)N[C@@H](CC(C)C)C(=O)N[C@@H](CC(N)=O)C(=O)N[C@@H](Cc1c[nH]c2ccccc12)C(=O)N[C@@H](CC(C)C)C(=O)N[C@H](C(=O)N[C@@H](CCCNC(=N)N)C(=O)N[C@@H](CCC(N)=O)C(=O)N[C@@H](CCCNC(=N)N)C(=O)N[C@@H](Cc1ccccc1)C(N)=O)[C@@H](C)O` [Compound A39] (H-PKPEKPGK([γGlu-γGlu-C19 diacid])DASPKEWERYYKDLRHYLNWLTRQRF-NH2; lactam 16-20; N-terminus assumed): in data set [1], the “Solubility (in Water, RT)” value is 16 mg/mL. The “Stability (37° C./RT, T0: Mar. 25, 2020)” value in data set [2] was found to be 95.9.

Turning to `CC(C)C[C@H](NC(=O)[C@H](Cc1ccc(O)cc1)NC(=O)[C@H](Cc1c[nH]cn1)NC(=O)[C@H](CCCNC(=N)N)NC(=O)[C@H](CC(C)C)NC(=O)[C@H](CC(=O)O)NC(=O)[C@@H](CCCCNC(=O)CC[C@H](NC(=O)COCCOCCNC(=O)COCCOCCNC(=O)CC[C@H](NC(=O)CCCCCCCCCCCCCCCCCCC(=O)O)C(=O)O)C(=O)O)NC(=O)[C@H](Cc1ccc(O)cc1)NC(=O)[C@H](Cc1ccc(O)cc1)NC(=O)[C@H](CCCNC(=N)N)NC(=O)[C@H](CC(N)=O)NC(=O)[C@H](Cc1c[nH]c2ccccc12)NC(=O)[C@H](CCC(=O)O)NC(=O)[C@H](CCC(=O)O)NC(=O)[C@@H]1CCCN1C(=O)[C@H](CO)NC(=O)[C@H](C)NC(=O)[C@H](CC(=O)O)NC(=O)[C@H](CCCCN)NC(=O)CNC(=O)[C@@H]1CCCN1C(=O)[C@H](C)NC(=O)[C@H](CCC(=O)O)NC(=O)[C@@H]1CCCN1C(=O)[C@H](CCCCN)NC(=O)[C@@H]1CCCN1)C(=O)N[C@@H](CC(N)=O)C(=O)N[C@@H](Cc1c[nH]c2ccccc12)C(=O)N[C@@H](CC(C)C)C(=O)N[C@H](C(=O)N[C@@H](CCCNC(=N)N)C(=O)N[C@@H](CCC(N)=O)C(=O)N[C@@H](CCCNC(=N)N)C(=O)N[C@@H](Cc1ccccc1)C(N)=O)[C@@H](C)O` [Compound A65], the concentration giving a half-maximal response (EC50) in data set [5] was 10 nM; in data set [3], 0.0631 nM; in data set [4] it was 2.51 nM.

In the case of “human amylin: 37-residue polypeptide hormone co-secreted with insulin from pancreatic β-cells (KCNTATCATQRLANFLVHSSNNFGAILSSTNVGSNTY; not fully specified (C-terminus, bridges); cysteine pairing not given here; UniProt P10997 34-70, looked up)”, in data set [6], the half-life in serum result is on record as “about 13 minutes”.
